# Structures can show the parent of a compound that is named as a salt.
# What was measured:
# [1] = cited from earlier work
# [2] = cited from earlier work; for effect on binge eating, in words: human, in vivo
# alcoholics = assay: Double-blind placebo-controlled trial of ondansetron in alcoholics randomized by 5'-HTTLPR genotype: self-reported drinking; type: in vivo, human
# Text: We randomized 283 alcoholics by genotype in the 5′-regulatory region of the 5-HTT gene (LL/LS/SS) in a controlled double-blind trial. […] We genotyped another functional single nucleotide polymorphism (T/G), rs1042173, in the 3′-untranslated region.
# Participants. Details of the subject population were similar to those in a previously published study (22). Briefly, our 283 enrollees (73.7% male; 84.4% White, and 15.6% Hispanic) had alcohol dependence but no axis I diagnosis other than nicotine dependence according to the Diagnostic and Statistical Manual of Mental Disorders, 4th edition (23); were aged 20 to 78 years, and scored >8 on the Alcohol Use Disorders Identification Test (24), which assessed the severity of alcohol-related problems.
# All subjects provided informed consent to participate.
# Subjects were randomized using an urn (25) procedure after the screening visit to either treatment or placebo under each of three different genotypes (LL, LS, or SS alleles of the 5′-HTTLPR) strata. Further characterization of the cohort for rs1042173 of 3′-UTR alleles (i.e., TT/TG/GG) was done post-randomization.
# Study procedures. Subjects were enrolled in the study whilst they were still drinking (i.e., without a period of abstinence). At enrollment, we collected self-reported drinking based on the timeline follow-back method over the past 90 days (26), genotyped, and collected white blood cells (WBCs) for expression studies.
# From weeks 1 to 12, subjects received weekly assessment of drinking using the timeline follow-back method, adverse events using the Systematic Assessment for Treatment Emergent Events (28), alcohol withdrawal using the revised Clinical Institute Withdrawal Assessment for Alcohol scale (17), concomitant medication use, and pill count.
# All subjects received weekly standardized, manual-driven (29, 30) cognitive behavioral therapy in groups of up to eight subjects as their psychosocial treatment. This comprised an integration of cognitive behavioral and social learning theory that enables alcoholic subjects to achieve and maintain abstinence by enhancing their ability to manage high-risk situations, which can trigger alcohol-seeking behavior (31, 32).
# Genetics testing. DNA was extracted from the blood of each subject at baseline with a Gentra Puregene® kit (QIAGEN Inc., Valencia, Calif.). The 5′-HTTLPR L/S alleles were determined as described earlier (2, 33) with custom-made primers. The alleles of SNP rs1042173 were genotyped with pre-made TaqMan® genotyping assays (Applied Biosystems, Foster City, Calif.) as reported previously (10).
# [3] = alcohol trials, naltrexone 50 mg/day; cited from earlier work
# [4] = LL genotype, ondansetron (4 μg/kg twice daily, 11 weeks) vs. placebo, averaged across treatment
# [5] = ondansetron LL vs. all other genotype and treatment groups combined
# [6] = ondansetron LL/TT vs. all other genotype and treatment groups combined
# [7] = within ondansetron recipients, LL vs. LS/SS
smiles,measurement,setting,value
"CC1(C)O[C@@H]2[C@@H](CO[C@@]3(COS(N)(=O)=O)OC(C)(C)O[C@@H]23)O1 [topiramate, 2,3:4,5-Bis-O-(1-methylethylidene)-beta-D-fructopyranose sulfamate]","cognitive impairment, individuals reporting",[1]; general population,2.4%
same,occurrence rate of cognitive impairment,[1]; substance abuse field,about 18.7%
same,"effect on appetite and weight, in words",[2]; controlled trials in patients with epilepsy,suppression of appetite and weight loss
"Cc1nccn1CC1CCc2c(c3ccccc3n2C)C1=O (stereo not drawn) [ondansetron, 9-methyl-3-[(2-methyl-1H-imidazol-1-yl)methyl]-1,2,3,9-tetrahydrocarbazol-4-one]","effect on binge eating, in words",[2],reduce binge eating
same,"drinks/drinking day (DDD), difference",alcoholics; [4],−1.62
same,"percentage of days abstinent (PDA), difference",alcoholics; [4],11.27%
same,"response by age of onset, in words",alcoholics; LL or LL/TT genotype,responded to ondansetron irrespective of age of onset
same,"effect on drinks/drinking day, in words","alcoholics; LL subjects, TT subjects",reduces drinks/drinking day
same,"response to treatment by rs1042173 genotype, in words","alcoholics; alcohol-dependent subjects, TT vs. TG/GG genotype",respond better
same,"reduction in severity of drinking by 5'-HTTLPR genotype, in words",alcoholics; alcoholics with LL genotype vs. LS/SS,significantly greater reduction in the severity of drinking
same,"drinks/drinking day (DDD), difference",alcoholics; [5],−1.45
same,"percentage of days abstinent (PDA), difference",alcoholics; [5],9.65%
same,"drinks/drinking day (DDD), difference",alcoholics; [6],−2.63
same,"percentage of days abstinent (PDA), difference",alcoholics; [6],16.99%
same,"drinks/drinking day (DDD), difference",alcoholics; [7],−1.53
same,"percentage of days abstinent (PDA), difference",alcoholics; [7],9.73%
O=C1NC(=O)C(c2ccccc2)(c2ccccc2)N1 [phenyloin],"effect on binge eating, in words",[2],reduced binge eating
"O=C1CC[C@@]2(O)[C@H]3Cc4ccc(O)c5c4[C@@]2(CCN3CC2CC2)[C@H]1O5 [naltrexone, 17-(Cyclopropylmethyl)-4,5a-epoxy-3,14-dihydroxymorphinan-6-one hydrochloride]",individuals unable to tolerate the dose,[3],about 15%
